Assay results reported in article PMC3073382 (Journal of medicinal chemistry, 2010).

Molecular target: PKA (catalytic subunit) (Bos taurus, UniProt P00517)
Assay: biochemical

O=C(N[C@@H]1CNCCC[C@H]1OC(=O)c1cc(O)c(C(=O)c2c(O)cccc2C(=O)O)c(O)c1)c1ccc(O)cc1 [balanol]
IC50: 110 nM
